Assay results as given in US5000936A, “Methods for locally-treating allergic disorders with pharmaceutical preparations containing N-acetyl-aspartyl glutamic acid or its salts” (THEA (Therapeutique et Applications) S.A., priority 1983, dated 1991).
Counter-ions that a name gives are not always drawn. Where a SMILES comes first, the peptide text is derived from it.

Experiments:
[1] = metabolism after oral and parenteral administration (statement); type: in vivo; conditions: oral and parenteral routes of administration
[2] = test system: mast cells of the nasal mucosa; experiment: mast cell degranulation of nasal mucosa of guinea pig by instillation of 48/80; type: in vivo
Experimental: The test is based on the determination by microscopy of the number of granulated mast cells per unit area in the nasal mucosa of the guinea pig, and on the study of the administration of a histamine releasing substance --48/80--on this number of mast cells. Guinea pigs receive in each nostril, twice daily during 3 days. 0.1 ml of the product under investigation, 15 minutes before the nasal instillation of 0.1 ml of 48/80 in solution at 2 % concentration; the animals are sacrificed 1 hour after the last instillation.
After sacrifice, the nasal mucosa is removed, then fixed and stained with toluidine blue to allow selective staining of the granulated mast cells. For each animal, the mast cells contained in 100 microscopic fields are counted by microscopy.

[3] = test system: sub-acute and chronic atopic conjunctivitis; experiment: clinical study in sub-acute and chronic atopic conjunctivitis (Example XII); type: in vivo; conditions: 27 patients; at least one year on 2 % Cromoglycate, then two months 4 % NAAGA eye-drops four times daily
Experimental: Twenty seven patients suffering from sub-acute and chronic atopic conjunctivitis who were treated for at least one year on 2 % Cromoglycate eye-drops, were switched from Cromoglycate treatment to 4 % NAAGA eye-drops four times daily. Before and after two months treatment period with composition according to example I.2., the patients were checked objectively in order to score the severity of conjunctival livid hyperemia and the amount of exudate. Subjectively the patients were asked to assess the symptoms of itching, burning and photophobia. Objective and subjective assessments were scored by means of visual analog scales.

[4] = test system: chronic allergic conjunctivitis; experiment: double blind clinical study in chronic allergic conjunctivitis (Example IX); type: in vivo, patients
Experimental: The trial was performed in double blind. The objective was to determine the effects of the composition according to Example I.2.: an ophthalmic solution at 4 % concentration, on the ocular symptoms and inflammatory conjunctival signs of patients suffering from chronic allergic conjunctivitis, compared with the sodium cromoglycate in ophthalmic solution at 2 % concentration used in therapy. The results of this comparative study concern 33 patients, of both sexes, who were distributed randomly into two groups: received the composition according to Example I.2. during 2 weeks at the rate of 1 drop in each eye to be treated, 3 to 5 times daily. These patients then received sodium cromoglycate in eye-drops at 2 % concentration (commercial eye-drops) during two supplementary weeks and at the same dosage, 16 patients received the same eye-drops in the reverse order and for the same lengths of time. The random assortment of the patients ensured good homogeneity in the distribution between the two treatment groups, not only in respect of the clinical characteristics, but also in respect of the duration of administration of the eye-drops under trial, and the use of concomitant treatments.

[5] = test system: perennial allergic rhinitis; experiment: double-blind cross-over clinical study in perennial allergic rhinitis (Example XIII); type: in vivo, patients; conditions: 2 sprays per nostril, 5 times per day, 2 weeks
Experimental: The aim of the present study was to determine the efficacy and tolerance of the composition according to example II.2., in the treatment of allergic rhinitis. For this purpose, a double-blind trial was undertaken versus a reference drug: disodium Cromoglycate in a 2 % nasal solution. The study involved 34 patients, suffering from perennial allergic rhinitis. Each patient was included in a cross-over treatment protocol, according to which the two drugs compared were administered successively during 2 treatment periods of 2 weeks each, at the dose of 2 sprays per nostril, 5 times per day.

allergic conjunctivitis = experiment: trial on allergic conjunctivitis in the rabbit; type: in vivo; conditions: n = 12 eyes
From the text: The experimental protocol has been established according to works by OKADA et al. (OKADA-SHIMADA, Invest. Ophthalmol. Vis. Sc. 1980, 19 2, 176-181).
The model of allergic conjunctivitis used consists in effecting a conjunctival immunization in rabbits by local injection of rabbit antibodies to bovine gammaglobulins. The conjunctivitis is then triggered by the inflammation of allergic origin thus provoked are observed as an increase in the weight of the conjunctiva, and as enhancement of the conjunctival capillary permeability to iodine-125 labeled rabbit serum albumin injected intravenously before the injection of the antigen.
Two hours after the injection of bovine gammaglobulins, the rabbits are sacrificed, and then the eyes are removed and the conjunctiva dissected out, weighed and submitted to radioactive counting.
Three parameters are recorded:
the weight of the conjunctiva,
the blood conjunctiva permeability index, evaluated as the ratio of the radioactivity of 1 mg of conjunctiva to that of 1 ml of blood,
the quantity of labeled serum albumin recovered in the conjunctiva.
To evaluate the protective effect of the preparation under investigation, several batches of six rabbits are formed, which receive 6 instillations of 2 eye-drops in each eye daily for 3.5 days before the injection of labeled serum albumin.
One batch of six normal rabbits, not tested and not subjected to provacation of the allergy, is also formed ("blank" batch), as well as a batch of six control rabbits receiving instillations of physiological serum before the triggering of the conjunctivitis ("conjunctivitis controls").

ciliary movement = experiment: acute tolerance on ciliary movement, overall verdict; type: cell-based, guinea pigs or rabbits; conditions: contact times which exceed 20 minutes
From the text: The technique used has been described under the name of microphotooscillography (L. G. CHEVANCE, J. F. LENNON: Etude des rythmes du battement ciliare (Study of rhythms of ciliary beating) Acta Otolaryng., 1970-70, 16-28)). In this study, guinea pigs or rabbits were used which were free of all clinical sign of infection of the airways. The animals are sacrificed, and then the nasal septum or trachea is dissected out. These tissues are placed in PBS survival medium and the superficial epithelium is removed by scraping, over an area of about 1 mm^2. This sample, which contains numerous ciliated cells in movement, is placed in an observation chamber under a special microscope equipped with a microphotoelectric system permitting the recording of ciliary beats in transillumination.
The measurement consists in recording the fluctuations in the light caused by the image, enlarged 500 times, of a cilium moving in front of the aperture of a diaphragm of suitable dimensions. After amplification, the fluctuations in light are recorded graphically.
Impairments of ciliary movement are translated as a decrease in the frequency of the ciliary beats. […]

In the case of `CC(=O)N[C@@H](CC(=O)O)C(=O)N[C@@H](CCC(=O)O)C(=O)O` [NAAGA, N-acetyl-(alpha, beta)-aspartyl glutamic acid] (Ac-Asp-Glu-OH), the metabolism [1] is reported as “rapidly and extensively metabolized”.

In the case of `O=C(O)c1cc(=O)c2c(OCC(O)COc3cccc4oc(C(=O)O)cc(=O)c34)cccc2o1` [sodium cromoglycate], the “Average number of granulated mast cells per microscopic field” value ([2]; 0.1 ml in each nostril twice daily during 3 days, 15 minutes before 48/80 at 2 %) is reported as 4.6, the “protective effect inferior to that of NAAGA by” value ([2]; 2 % concentration (commercial solution), same experimental condition) is reported as “about 40%” and the “frequency of marginal objective control” value [3] is reported as 33%. For the same compound, the “frequency of marginal subjective control” value [3] was 37%, the “patients with improvement in the ocular symptoms” value ([4]; 1 drop in each eye 3 to 5 times daily, 2 weeks per product, 33 patients) was “more than 65%” and the “preferences expressed by the patients” value ([4]; cross-over comparison of the two eye-drops) was 33%. The “Nasal and systemic tolerance” value [5] was “good and no side-effects were seen”, the “patients with results of treatment considered to be good” value [5] was 61% and the “Quantity of serum albumin in the conjunctiva” value (allergic conjunctivitis; 6 instillations of 2 eye-drops in each eye daily for 3.5 days, mean ± spread) was 34.5 ± 13.6 µg. The “Weight of the conjunctiva” value (allergic conjunctivitis) was 411 ± 64 mg and the “Blood-conjunctiva index (× 100)” value (allergic conjunctivitis; ratio of radioactivity of 1 mg of conjunctiva to that of 1 ml of blood, × 100) was 4.7 ± 1.8.

With `CC(=O)N[C@@H](CC(=O)O)C(=O)N[C@@H](CCC(=O)O)C(=O)O` [sodium salt] (Ac-Asp-Glu-OH) the “acute tolerance on ciliary movement versus criterion (not more than 50% decrease after twenty minutes)” value (ciliary movement) was “Analogous results”.
